This note sets out measurements from PubChem BioAssay AID2740 (NMMLSC, 2010).

The source made the active and inactive calls.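 The calls were made as follows: active = compounds whose fitted half-maximal concentration for changing the GFP signal is at or below a set limit; inactive = the rest.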

The nature of the assay: TOR pathway RPL19A-GFP modulators, concentration series – cell-based, S. cerevisiae, flow cytometry, MLPCN hits, dose response (AID 2740).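 Also: background is signal of the same compound in parental non-GFP s288c yeast.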 Conditions: S. cerevisiae RPL19A-GFP strain, flow cytometry fluorescence, 3 h; at 33 µM (top of the series). On the technique in general: Flow cytometry measures light scatter and fluorescence of single cells or particles in a stream.

Consider `Cc1nn(C)c(C)c1N1C(=O)c2cccc3c(Br)ccc(c23)C1=O`, for which the GFP fluorescence, lower = active (kMESF (background-subtracted)) was 40.3 (inactive).

Take `COc1cccc(/C=N/Nc2ncc(C(F)(F)F)cc2Cl)c1O`: the GFP fluorescence, lower = active (kMESF (background-subtracted)) was 38.7 (inactive).

On to `O=c1oc2cc(Oc3c([N+](=O)[O-])cc(C(F)(F)F)cc3[N+](=O)[O-])ccc2c2c1CCCC2`, for which the GFP fluorescence, lower = active (kMESF (background-subtracted)) was 36.1 (inactive).

As to `O=C(Oc1cccc2cccnc12)c1ccc(Br)o1`, the GFP fluorescence, lower = active (kMESF (background-subtracted)) was 44.1 (inactive).

For `COc1ccc(/C=C/C(=O)C2C(=O)C=C(C)OC2=O)cc1O` (stereo not drawn), the GFP fluorescence, lower = active (kMESF (background-subtracted)) is 39 (inactive).

`O=C(/C=C/c1ccc(Br)cc1)NC(=S)NNC(=O)c1ccco1`: the GFP fluorescence, lower = active (kMESF (background-subtracted)) was 50.2 (inactive).

On to `O=C(O)c1ccc2c(c1)C(=O)/C(=C/c1ccccc1)C2=O`, for which the GFP fluorescence, lower = active (kMESF (background-subtracted)) was 36.8 (inactive).

For `COc1ccc(/C=C/C(=O)c2cc(Br)ccc(=O)c2O)cc1`, the GFP fluorescence, lower = active (kMESF (background-subtracted)) was -35.7 (inactive).

Regarding `CCN(CC)c1ccc(/C=C2/C(=O)c3ccc(C(=O)O)cc3C2=O)cc1`, the GFP fluorescence, lower = active (kMESF (background-subtracted)) was 38.3 (inactive).

As for `N#C/C(=C\c1cc(Br)ccc1F)C(=O)NC1CC1`, the GFP fluorescence, lower = active (kMESF (background-subtracted)) is 24.2 (inactive).

For `Cc1ccc(C(=O)Sc2cccccc2=O)cc1`, the GFP fluorescence, lower = active (kMESF (background-subtracted)) was 27.8 (inactive).

For the compound `Cc1ccc(C(c2cc(Cl)c3cccnc3c2O)N2CCN(C)CC2)cc1` (stereo not drawn), the GFP fluorescence, lower = active (kMESF (background-subtracted)) was 29.8 (inactive).

Take `CC(C)CC(=O)NC(=S)Nc1nc(-c2ccccc2)cs1`: the GFP fluorescence, lower = active (kMESF (background-subtracted)) is 38.4 (inactive).

As to `O=c1[nH]c(-c2ccccn2)nc(C(F)(F)F)c1Br`, the GFP fluorescence, lower = active (kMESF (background-subtracted)) is 30.1 (inactive).

With `O=C(OCn1ncc(Br)c(Br)c1=O)c1ccc(F)cc1`, the GFP fluorescence, lower = active (kMESF (background-subtracted)) was 37.3 (inactive).

Take `CN(C)c1ccc(N=Cc2nc(-c3ccccc3)oc2OC(=O)c2ccccc2)cc1`: the GFP fluorescence, lower = active (kMESF (background-subtracted)) was 44.1 (inactive).

Regarding `CC(C)[C@@]1(c2ccccc2)ON(c2ccccc2C(F)(F)F)C1=O`, the GFP fluorescence, lower = active (kMESF (background-subtracted)) is 40.1 (inactive).

For `O=C1/C(=C\c2ccc(O)c(O)c2)SC(=S)N1Cc1ccccc1`, the GFP fluorescence, lower = active (kMESF (background-subtracted)) is 1.52 (inactive).

Consider `COc1ccc(C(=O)NC(=S)NNC(=O)c2cnccn2)cc1`, for which the GFP fluorescence, lower = active (kMESF (background-subtracted)) is 35.4 (inactive).

On to `O=C(Oc1c(Cl)cc(Cl)c2cccnc12)c1cccs1`, for which the GFP fluorescence, lower = active (kMESF (background-subtracted)) is 36.1 (inactive).

For the compound `Nc1ccccc1SC(C[N+](=O)[O-])c1ccccc1` (stereo not drawn), the GFP fluorescence, lower = active (kMESF (background-subtracted)) was 38.1 (inactive).

In the case of `Cc1cc(C)c(OCC(=O)Nc2nc(-c3ccccn3)cs2)c(C)c1`, the GFP fluorescence, lower = active (kMESF (background-subtracted)) was 39.3 (inactive).

As for `CCOC(=O)CS(=O)(=O)c1nc(-c2ccc(F)cc2)cc(C(F)(F)F)n1`, the GFP fluorescence, lower = active (kMESF (background-subtracted)) was 46.7 (inactive).

`O=C1Nc2ccccc2/C1=C\C(=O)c1ccccc1`: the GFP fluorescence, lower = active (kMESF (background-subtracted)) is 34.2 (inactive).

In the case of `O=[N+]([O-])c1ccc(-c2cn3nc(-c4ccccc4)c(-c4ccccc4)nc3n2)cc1`, the GFP fluorescence, lower = active (kMESF (background-subtracted)) is 48.8 (inactive).

For the compound `COc1cc(/C=C2/C(=O)ON=C2c2ccccc2)ccc1O`, the GFP fluorescence, lower = active (kMESF (background-subtracted)) was 35.6 (inactive).

In the case of `Cc1c(C)c2ccc(Oc3ccc([N+](=O)[O-])cc3C(F)(F)F)c(C)c2oc1=O`, the GFP fluorescence, lower = active (kMESF (background-subtracted)) is 39.5 (inactive).

For the compound `O=C1C(Cl)=C(N2CCN(Cc3ccccc3)CC2)C(=O)N1c1ccccc1`, the GFP fluorescence, lower = active (kMESF (background-subtracted)) was 40.2 (inactive).

On to `CCCCNc1c2c3c(cccc3n(C)c1=O)C(=O)c1ccccc1-2`, for which the GFP fluorescence, lower = active (kMESF (background-subtracted)) was 39.9 (inactive).

Turning to `COc1ccc(/C=C/C(=O)NC(=S)NNC(=O)c2cnccn2)cc1`, the GFP fluorescence, lower = active (kMESF (background-subtracted)) was 49.2 (inactive).

Turning to `COc1ccc(N2C(=O)C(Cl)=C(NCc3ccccc3)C2=O)cc1`, the GFP fluorescence, lower = active (kMESF (background-subtracted)) is 44.3 (inactive).

`CC1=C/C(=N\OS(=O)(=O)c2ccccc2)C(C(C)C)=CC1=O`: the GFP fluorescence, lower = active (kMESF (background-subtracted)) was 21.4 (inactive).

Consider `Cc1ccccc1OCCOC(=O)c1ccc(S(=O)(=O)N2CCCC2)cc1`, for which the GFP fluorescence, lower = active (kMESF (background-subtracted)) was 43.3 (inactive).

As to `O=C(OCn1ncc(Br)c(Br)c1=O)c1c(F)cccc1F`, the GFP fluorescence, lower = active (kMESF (background-subtracted)) is 37.9 (inactive).

Take `COc1ccccc1NC1=C(Cl)C(=O)N(c2ccccc2)C1=O`: the GFP fluorescence, lower = active (kMESF (background-subtracted)) is 39.5 (inactive).

Take `CC[C@@]1(c2ccccc2OC)ON(c2ccccc2C(F)(F)F)C1=O`: the GFP fluorescence, lower = active (kMESF (background-subtracted)) is 35.9 (inactive).

As for `Nc1ccc2ccc3cccc[n+]3c2c1`, the GFP fluorescence, lower = active (kMESF (background-subtracted)) is 45.9 (inactive).

On to `CCCS(=O)(=O)c1nnnn1-c1cccc(OC)c1`, for which the GFP fluorescence, lower = active (kMESF (background-subtracted)) is 31.9 (inactive).

Take `CC(=O)NN1C(=O)/C(=C/c2ccc(Br)o2)SC1=S`: the GFP fluorescence, lower = active (kMESF (background-subtracted)) was 40.5 (inactive).

For `CC1(C(=O)NC(=S)NNC(=O)c2ccncc2)CCCCC1`, the GFP fluorescence, lower = active (kMESF (background-subtracted)) was 39.9 (inactive).

Take `O=[N+]([O-])c1ccc(S(=O)(=O)c2ccccc2)nc1`: the GFP fluorescence, lower = active (kMESF (background-subtracted)) is 29.6 (inactive).

As to `Oc1c(CN2CCN(c3ccc(F)cc3)CC2)cc(Cl)c2cccnc12`, the GFP fluorescence, lower = active (kMESF (background-subtracted)) is 40.4 (inactive).

As to `COc1ccc(N2CCN(C(=O)c3ccc(Br)cc3)CC2)c([N+](=O)[O-])c1`, the GFP fluorescence, lower = active (kMESF (background-subtracted)) is 47.4 (inactive).

For `COc1cccc(/C=N/Nc2ccc([N+](=O)[O-])cn2)c1O`, the GFP fluorescence, lower = active (kMESF (background-subtracted)) was 42.1 (inactive).

`CCN(CC(=O)Nc1cc(S(=O)(=O)N2CCOCC2)ccc1Cl)Cc1ccccc1`: the GFP fluorescence, lower = active (kMESF (background-subtracted)) is 43.2 (inactive).

With `COc1ccc(Cl)cc1C(Nc1cccnc1)c1ccc2cccnc2c1O` (stereo not drawn), the GFP fluorescence, lower = active (kMESF (background-subtracted)) was 42.8 (inactive).

In the case of `O=C1Nc2ccc(Br)cc2/C1=C/C(=O)c1ccc2c(c1)OCO2`, the GFP fluorescence, lower = active (kMESF (background-subtracted)) is 40.6 (inactive).

Take `CN1C(=O)/C(=N\OC(=O)c2cccc3ccccc23)c2ccccc21`: the GFP fluorescence, lower = active (kMESF (background-subtracted)) was 42.9 (inactive).

Regarding `COc1ccc(C2=CC(=O)N(Nc3ccccc3)C2=O)cc1`, the GFP fluorescence, lower = active (kMESF (background-subtracted)) is 34.6 (inactive).

In the case of `CCOC(=O)Cn1cc(/C=C/[N+](=O)[O-])c2ccccc21`, the GFP fluorescence, lower = active (kMESF (background-subtracted)) was 39.5 (inactive).

With `C/C(=N\NC(=O)c1cc2ccccc2cc1O)c1ccccn1`, the GFP fluorescence, lower = active (kMESF (background-subtracted)) was 45.5 (inactive).

In the case of `CCN(CC)c1ccc2cc(-c3nc4ccccc4[nH]3)c(=O)oc2c1`, the GFP fluorescence, lower = active (kMESF (background-subtracted)) was 42.6 (inactive).

Consider `COc1ccc([C@@]2(C(C)C)ON(c3ccccc3C(F)(F)F)C2=O)cc1`, for which the GFP fluorescence, lower = active (kMESF (background-subtracted)) was 45.9 (inactive).
